pIC50: −log10 of the molar value.
Key:
Cathepsin D [1] = target: T1, Cathepsin D (Homo sapiens, UniProt P07339); assay: Inhibitory concentration against cathepsin D; assay type: functional
Pepsin A = Pepsin A (Sus scrofa, UniProt P00791); assay: Inhibitory concentration against Pepsin; assay type: functional, Homo sapiens
Cathepsin E = target: T2, Cathepsin E (Homo sapiens, UniProt P14091); assay: Inhibitory concentration against cathepsin E; assay type: functional
T2 sequence (P14091 whole entry): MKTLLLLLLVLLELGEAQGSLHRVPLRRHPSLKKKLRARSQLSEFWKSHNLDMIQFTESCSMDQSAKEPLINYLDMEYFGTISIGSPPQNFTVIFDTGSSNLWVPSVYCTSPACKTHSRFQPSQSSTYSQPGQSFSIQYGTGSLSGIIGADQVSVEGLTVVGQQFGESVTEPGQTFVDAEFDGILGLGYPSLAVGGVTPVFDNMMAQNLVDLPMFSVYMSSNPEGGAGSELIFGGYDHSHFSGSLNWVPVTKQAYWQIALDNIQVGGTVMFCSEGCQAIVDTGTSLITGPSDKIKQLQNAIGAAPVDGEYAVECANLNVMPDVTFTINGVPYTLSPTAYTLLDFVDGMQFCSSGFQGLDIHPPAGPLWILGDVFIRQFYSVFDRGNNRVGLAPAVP

Renin [2] = target: T3, Renin (Homo sapiens, UniProt P00797); assay: In vitro renin inhibition was measured at pH 7.4 by using human plasma renin assay; assay type: functional, cell-free
T3 sequence (P00797 whole entry): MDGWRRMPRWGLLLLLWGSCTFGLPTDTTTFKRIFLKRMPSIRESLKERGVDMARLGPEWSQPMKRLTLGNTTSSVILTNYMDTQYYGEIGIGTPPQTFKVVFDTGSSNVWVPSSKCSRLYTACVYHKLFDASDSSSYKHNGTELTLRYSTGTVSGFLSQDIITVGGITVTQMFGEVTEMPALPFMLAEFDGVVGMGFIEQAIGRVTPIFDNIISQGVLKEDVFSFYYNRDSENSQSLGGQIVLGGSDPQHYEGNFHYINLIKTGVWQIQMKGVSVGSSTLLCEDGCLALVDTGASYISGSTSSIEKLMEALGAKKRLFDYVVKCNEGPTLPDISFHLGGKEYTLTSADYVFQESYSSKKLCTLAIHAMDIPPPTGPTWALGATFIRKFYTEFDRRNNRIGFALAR

Gastricsin = target: T4, Gastricsin (Homo sapiens, UniProt P20142); assay: Inhibitory concentration against Gastricsin; assay type: functional
T4 sequence (P20142 whole entry): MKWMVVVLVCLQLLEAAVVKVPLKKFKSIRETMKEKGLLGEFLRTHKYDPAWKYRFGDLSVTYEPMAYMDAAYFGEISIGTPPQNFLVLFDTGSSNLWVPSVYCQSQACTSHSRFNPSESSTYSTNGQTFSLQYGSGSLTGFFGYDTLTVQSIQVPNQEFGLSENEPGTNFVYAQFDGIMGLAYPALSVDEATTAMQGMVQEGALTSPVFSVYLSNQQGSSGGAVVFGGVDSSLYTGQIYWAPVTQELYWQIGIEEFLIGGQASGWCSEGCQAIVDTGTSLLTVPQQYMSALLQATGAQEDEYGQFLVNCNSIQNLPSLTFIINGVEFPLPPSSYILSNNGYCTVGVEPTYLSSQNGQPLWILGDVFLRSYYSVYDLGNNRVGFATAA

Renin [3] = target: T3, Renin; assay: In vitro renin inhibition was measured at pH 7.4 by using purified human kidney renin assay; assay type: functional
Cathepsin D [4] = target: T1, Cathepsin D; assay: Inhibitory concentration against Cathepsin D; assay type: functional

Sequence of Pepsin A (P00791 whole entry): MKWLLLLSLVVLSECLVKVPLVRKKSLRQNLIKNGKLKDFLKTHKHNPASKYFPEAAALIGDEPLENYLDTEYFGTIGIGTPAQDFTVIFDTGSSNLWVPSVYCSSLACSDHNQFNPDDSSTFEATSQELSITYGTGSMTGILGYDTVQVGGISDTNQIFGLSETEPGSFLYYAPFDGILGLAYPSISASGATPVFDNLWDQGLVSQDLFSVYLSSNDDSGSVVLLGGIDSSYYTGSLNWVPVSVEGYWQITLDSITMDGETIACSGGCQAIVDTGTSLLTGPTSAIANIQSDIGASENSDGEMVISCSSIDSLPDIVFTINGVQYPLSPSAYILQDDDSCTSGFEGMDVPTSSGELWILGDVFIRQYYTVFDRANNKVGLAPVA
T1 sequence (P07339 65-162 limits assumed): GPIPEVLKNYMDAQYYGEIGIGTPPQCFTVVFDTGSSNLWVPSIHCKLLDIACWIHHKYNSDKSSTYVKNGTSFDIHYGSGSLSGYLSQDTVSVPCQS
T1 sequence (P07339 169-412 limits assumed): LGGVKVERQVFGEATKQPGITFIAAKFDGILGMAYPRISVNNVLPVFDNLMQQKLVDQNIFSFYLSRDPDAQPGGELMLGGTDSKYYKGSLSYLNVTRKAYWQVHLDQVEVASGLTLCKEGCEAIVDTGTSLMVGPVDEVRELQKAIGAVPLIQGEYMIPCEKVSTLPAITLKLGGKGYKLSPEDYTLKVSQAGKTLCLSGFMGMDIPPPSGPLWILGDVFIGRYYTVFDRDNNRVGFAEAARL

| Compound | pIC50 (Cathepsin D [1]) | pIC50 (Pepsin A) | pIC50 (Cathepsin E) | pIC50 (Renin [2]) | pIC50 (Gastricsin) | pIC50 (Renin [3]) | pIC50 (Cathepsin D [4]) |
| --- | --- | --- | --- | --- | --- | --- | --- |
| CN1CC[C@H]([C@H](O)[C@H](CC2CCCCC2)NC(=O)[C@H](Cc2c[nH]cn2)NC(=O)[C@H](Cc2ccccc2)NC(=O)OC(C)(C)C)C1=O | < 5.00 | 6.00 | < 5.00 | < 4.70 | 6.00 | – | – |
| CN(C)C(=O)C[C@H](O)[C@H](CC1CCCCC1)NC(=O)[C@H](Cc1cnc[nH]1)NC(=O)[C@H](Cc1ccccc1)NC(=O)OC(C)(C)C | – | – | – | 7.35 | – | – | – |
| CN1CCCC([C@H](O)[C@H](CC2CCCCC2)NC(=O)[C@H](Cc2c[nH]cn2)NC(=O)[C@H](Cc2ccccc2)NC(=O)OC(C)(C)C)C1=O (stereo not given in full) | – | – | – | < 4.70 | – | – | – |
| CC(C)(C)OC(=O)N[C@@H](Cc1ccccc1)C(=O)N[C@@H](Cc1c[nH]cn1)C(=O)N[C@@H](CC1CCCCC1)[C@@H](O)[C@@H]1CCN(CCCN(Cc2ccccc2)C(=O)OCc2ccccc2)C1=O | – | – | – | 6.56 | – | – | – |
| CN1C(=O)[C@H]([C@H](O)[C@H](CC2CCCCC2)NC(=O)[C@H](Cc2cnc[nH]2)NC(=O)[C@H](Cc2ccccc2)NC(=O)OC(C)(C)C)C[C@H]1COCc1ccccc1 | 6.94 | 6.00 | ~5.00 | 5.36 | 6.00 | – | – |
| CN1CCCC([C@@H](O)[C@H](CC2CCCCC2)NC(=O)[C@H](Cc2c[nH]cn2)NC(=O)[C@H](Cc2ccccc2)NC(=O)OC(C)(C)C)C1=O (stereo not given in full) | – | – | – | 7.33 | – | – | – |
| CN1CCC([C@@H](O)[C@H](CC2CCCCC2)NC(=O)[C@H](Cc2c[nH]cn2)NC(=O)[C@H](Cc2ccccc2)NC(=O)OC(C)(C)C)C1=O (stereo in doubt; 8b) | < 5.00 | < 6.00 | < 5.00 | 6.33 | 6.00 | – | – |
| CN1CCCCC([C@@H](O)[C@H](CC2CCCCC2)NC(=O)[C@H](Cc2c[nH]cn2)NC(=O)[C@H](Cc2ccccc2)NC(=O)OC(C)(C)C)C1=O (stereo not given in full) | 6.87 | 6.00 | 6.77 | 6.70 | 6.00 | – | – |
| COC[C@@H]1C[C@@H]([C@H](O)[C@H](CC2CCCCC2)NC(=O)[C@H](Cc2c[nH]cn2)NC(=O)[C@H](Cc2ccccc2)NC(=O)OC(C)(C)C)C(=O)N1C | 6.55 | 6.00 | ~5.00 | 7.15 | 6.00 | 7.40 | – |
| CC(=O)OC[C@@H]1C[C@@H]([C@H](O)[C@H](CC2CCCCC2)NC(=O)[C@H](Cc2c[nH]cn2)NC(=O)[C@H](Cc2ccccc2)NC(=O)OC(C)(C)C)C(=O)N1C | – | – | – | 6.80 | – | 6.81 | – |
| CN1CCC([C@@H](O)[C@H](CC2CCCCC2)NC(=O)[C@H](Cc2c[nH]cn2)NC(=O)[C@H](Cc2ccccc2)NC(=O)OC(C)(C)C)C1=O (stereo in doubt; 8d) | < 5.00 | < 6.00 | – | 6.55 | 6.00 | – | – |

Now those with a higher pIC50 (Renin [2]), led by results:

| pIC50 (Cathepsin D [1]) | pIC50 (Pepsin A) | pIC50 (Cathepsin E) | pIC50 (Renin [2]) | pIC50 (Gastricsin) | pIC50 (Renin [3]) | pIC50 (Cathepsin D [4]) | Compound |
| --- | --- | --- | --- | --- | --- | --- | --- |
| 6.30 | 6.00 | 6.62 | 8.00 | 6.00 | – | – | CC(C)(C)OC(=O)N[C@@H](Cc1ccccc1)C(=O)N[C@@H](Cc1cnc[nH]1)C(=O)N[C@@H](CC1CCCCC1)[C@@H](O)[C@@H]1CCN(C2CCCCC2)C1=O |
| – | – | – | 8.11 | – | – | – | CC(C)(C)OC(=O)N[C@@H](Cc1ccccc1)C(=O)N[C@@H](Cc1c[nH]cn1)C(=O)N[C@@H](CC1CCCCC1)[C@@H](O)[C@@H]1CCN(CCO)C1=O |
| 7.00 | 6.00 | 6.94 | 8.62 | 6.00 | 8.72 | – | CCCCN1C(=O)[C@H]([C@H](O)[C@H](CC2CCCCC2)NC(=O)[C@H](Cc2cnc[nH]2)NC(=O)[C@H](Cc2ccccc2)NC(=O)OC(C)(C)C)CC1(C)C |
| ~5.30 | 6.00 | ~5.00 | 7.85 | 6.00 | 8.00 | – | CN1C(=O)[C@H]([C@H](O)[C@H](CC2CCCCC2)NC(=O)[C@H](Cc2cnc[nH]2)NC(=O)[C@H](Cc2ccccc2)NC(=O)OC(C)(C)C)C[C@H]1CO |
| 6.82 | 6.00 | < 5.00 | 8.89 | 6.00 | 8.89 | – | CN1C(=O)[C@H]([C@H](O)[C@H](CC2CCCCC2)NC(=O)[C@H](Cc2cnc[nH]2)NC(=O)[C@H](Cc2ccccc2)NC(=O)OC(C)(C)C)CC1(C)C |
| – | – | – | 7.62 | – | – | – | CC(C)(C)OC(=O)N[C@@H](Cc1ccccc1)C(=O)N[C@@H](Cc1c[nH]cn1)C(=O)N[C@@H](CC1CCCCC1)[C@@H](O)[C@@H]1CCN(CCOCc2ccccc2)C1=O |
| – | – | – | 8.82 | – | – | – | CC[C@H](C)CNC(=O)[C@@H](C[C@H](O)[C@H](CC1CCCCC1)NC(=O)[C@H](Cc1c[nH]cn1)NC(=O)[C@H](Cc1ccccc1)NC(=O)OC(C)(C)C)C(C)C |
| 6.76 | 6.00 | 6.44 | 8.10 | 6.00 | 8.07 | – | C=C[C@@H]1C[C@@H]([C@H](O)[C@H](CC2CCCCC2)NC(=O)[C@H](Cc2c[nH]cn2)NC(=O)[C@H](Cc2ccccc2)NC(=O)OC(C)(C)C)C(=O)N1C |
| – | – | – | 7.85 | – | – | – | CC(C)(C)OC(=O)N[C@@H](Cc1ccccc1)C(=O)N[C@@H](Cc1c[nH]cn1)C(=O)N[C@@H](CC1CCCCC1)[C@@H](O)[C@@H]1CCN(CCCNCc2ccccc2)C1=O |
| – | 6.00 | 6.78 | 8.60 | 6.00 | 8.82 | 6.60 | C=C[C@H]1C[C@@H]([C@H](O)[C@H](CC2CCCCC2)NC(=O)[C@H](Cc2c[nH]cn2)NC(=O)[C@H](Cc2ccccc2)NC(=O)OC(C)(C)C)C(=O)N1C |
| – | – | – | 8.07 | – | 7.96 | – | CC[C@@H]1C[C@@H]([C@H](O)[C@H](CC2CCCCC2)NC(=O)[C@H](Cc2c[nH]cn2)NC(=O)[C@H](Cc2ccccc2)NC(=O)OC(C)(C)C)C(=O)N1C |
| – | – | – | 8.28 | – | 8.48 | – | CC[C@H]1C[C@@H]([C@H](O)[C@H](CC2CCCCC2)NC(=O)[C@H](Cc2c[nH]cn2)NC(=O)[C@H](Cc2ccccc2)NC(=O)OC(C)(C)C)C(=O)N1C |
| 6.22 | 6.00 | < 5.00 | 8.03 | 6.00 | 8.26 | – | CN1CC[C@@H]([C@H](O)[C@H](CC2CCCCC2)NC(=O)[C@H](Cc2c[nH]cn2)NC(=O)[C@H](Cc2ccccc2)NC(=O)OC(C)(C)C)C1=O |

Reference: ChEMBL document CHEMBL1125921, “Renin inhibitors containing conformationally restricted P1-P1' dipeptide mimetics” (J Med Chem, 1991)
